Source: patent publication US10067142B2, “Method for diagnosing, treating, or preventing mood disorder” (priority 2014, dated 2018)
Like-named read-outs stand apart in the source and are kept apart here.

Tests used:
Bcl-2 = details: Literatures 13 through 16, cited from earlier work
[1] = system: SITH-1/Adv nasal administration mice; experiment: Tail suspension test of SSRI-treated SITH-1/Adv nasal administration mice; format: in vivo; details: 80 mg/L Fluoxetine solution as drinking water from 2 weeks before nasal SITH-1/Adv; test 7 days after nasal administration, 10 minutes
Experimental: 8-week-old C57BL/6NCrSlc mice were raised at a room temperature of 24±1° C. and with lights on for 12 hours and off for 12 hours. After each of the mice was anesthetized with use of isoflurane, SITH-1/Adv or empty/Adv in an amount equivalent to 2.5×10^7 ifu was dropped onto the nasal cavity, and was then sucked along with breathing. Then, the mice were returned to raising cages.
7 days after the nasal administration of SITH-1/Adv or empty/Adv, a tail suspension test was carried out for 10 minutes. A period of immobility time was measured with use of TailSuspScanTopScan (CleverSys, Inc.). The tail suspension test was carried out by suspending each mouse by taping the tail 1 cm from the end. […] In the experiment, 30 mice were used in each group.
Then, it was studied whether or not an SSRI (selective serotonin reuptake inhibitor), which is an antidepressant, would restrict an increase in immobility time, the increase being caused by the nasal administration of the SITH-1/Adv. 80 mg/L of Fluoxetine solution as drinking water was given to 6-week-old mice (see Literature 18), and then the mice were raised for 2 weeks. Then, SITH-1/Adv was nasally administered. 7 days after the nasal administration, a tail suspension test was carried out for 10 minutes. […] Statistical significance (* indicates P<0.05, ** indicates P<0.01, and *** indicates P<0.001) was calculated by use of the Mann-Whitney U-test.

HHV-6 HST strain = experiment: SITH-1 expression in HHV-6-infected U373 cells pre-reacted with heparin or anti-heparan sulfate peptide; format: cell-based; details: cells reacted with 10 unit/mL Novo-Heparin at 4° C. for 1 hour before infection; MOI 3; 48 hours
Experimental: U373 astrocytoma cells were removed with use of trypsin-EDTA, and then a medium (10% FBS-containing DMEM) was added, so that the resultant cells were at 1×10^5 cell/mL. Then, the U373 cells were reacted with 10 unit/mL of Novo-Heparin (Mochida Pharmaceutical Co., Ltd.) or 0.1 mM of anti-3-OS Heparan sulfate (HS) peptide trifluoroacetate salt (Sigma-Aldrich) at 4° C. for 1 hour. The U373 cells were also reacted only with a medium as a control at 4° C. for 1 hour. The resultant cells were washed 3 times with a medium. Then, the U373 cells thus washed were infected with a HHV-6 HST strain virus fluid (2.9×10^6 ffu/ml) at a MOI of 3 by centrifugation. Then, the infected cells were cultured at 37° C. for 48 hours in a CO2 incubator.
From the resultant infected cells, RNA was purified by use of RNeasy Mini Kit (Qiagen) in accordance with the standard protocol. Then, cDNA was synthesized by use of a PrimeScript RT Reagent Kit (Takara Bio). Finally, expression levels of SITH-1 and GAPDH mRNA were measured by a method similar to that used in the above (3.1).

Molecule	Bcl-2 expression in the brain (Bcl-2)	also measured
COc1ccc(C(CN(C)C)C2(O)CCCCC2)cc1 (stereo not shown) [venlafaxine]	promote Bcl-2 expression in the brain	
CCOc1ccccc1OC(c1ccccc1)C1CNCCO1 (stereo not shown) [reboxetine]	promote Bcl-2 expression in the brain	
CN(C)CCCN1c2ccccc2CCc2ccccc21 [imipramine]	promote Bcl-2 expression in the brain	
N[C@@H]1C[C@H]1c1ccccc1 (racemic) [tranylcypromine]	promote Bcl-2 expression in the brain	
CN(C)CCC=C1c2ccccc2CCc2ccccc21 [amitriptyline]	promote Bcl-2 expression in the brain	
CNCCC(Oc1ccc(C(F)(F)F)cc1)c1ccccc1 (stereo not shown) [Fluoxetine]	promotes Bcl-2 expression	immobility time increases in tail suspension test [1]: restricted; Bcl-2 expression in the brain (Bcl-2; listed as fluoxetine): promote Bcl-2 expression in the brain
heparin		SITH-1 expression in U373 cells (HHV-6 HST strain): restricted
CNCCCN1c2ccccc2CCc2ccccc21 [desipramine]	promote Bcl-2 expression in the brain	
